Here are results for two compounds from PMC7693676, “Suberitamides A–C, Aryl Alkaloids from a Pseudosuberites sp. Marine Sponge that Inhibit Cbl-b Ubiquitin Ligase Activity” (Marine Drugs, 2020).

The target of the experiment is T1, Cbl-b (Homo sapiens, UniProt Q13191).
T1 construct: gene CBLB; N1/2 Construct; with E1 (UBE1) and E2 (UBC-H5) with ubiquitin in the assay
Put plainly: in vitro Cbl-b autoubiquitination assay (UBA-coated plate, biotin-ubiquitin/avidin-HRP fluorescence), dose response. In kind it is biochemical.

T1 sequence (Q13191 whole entry): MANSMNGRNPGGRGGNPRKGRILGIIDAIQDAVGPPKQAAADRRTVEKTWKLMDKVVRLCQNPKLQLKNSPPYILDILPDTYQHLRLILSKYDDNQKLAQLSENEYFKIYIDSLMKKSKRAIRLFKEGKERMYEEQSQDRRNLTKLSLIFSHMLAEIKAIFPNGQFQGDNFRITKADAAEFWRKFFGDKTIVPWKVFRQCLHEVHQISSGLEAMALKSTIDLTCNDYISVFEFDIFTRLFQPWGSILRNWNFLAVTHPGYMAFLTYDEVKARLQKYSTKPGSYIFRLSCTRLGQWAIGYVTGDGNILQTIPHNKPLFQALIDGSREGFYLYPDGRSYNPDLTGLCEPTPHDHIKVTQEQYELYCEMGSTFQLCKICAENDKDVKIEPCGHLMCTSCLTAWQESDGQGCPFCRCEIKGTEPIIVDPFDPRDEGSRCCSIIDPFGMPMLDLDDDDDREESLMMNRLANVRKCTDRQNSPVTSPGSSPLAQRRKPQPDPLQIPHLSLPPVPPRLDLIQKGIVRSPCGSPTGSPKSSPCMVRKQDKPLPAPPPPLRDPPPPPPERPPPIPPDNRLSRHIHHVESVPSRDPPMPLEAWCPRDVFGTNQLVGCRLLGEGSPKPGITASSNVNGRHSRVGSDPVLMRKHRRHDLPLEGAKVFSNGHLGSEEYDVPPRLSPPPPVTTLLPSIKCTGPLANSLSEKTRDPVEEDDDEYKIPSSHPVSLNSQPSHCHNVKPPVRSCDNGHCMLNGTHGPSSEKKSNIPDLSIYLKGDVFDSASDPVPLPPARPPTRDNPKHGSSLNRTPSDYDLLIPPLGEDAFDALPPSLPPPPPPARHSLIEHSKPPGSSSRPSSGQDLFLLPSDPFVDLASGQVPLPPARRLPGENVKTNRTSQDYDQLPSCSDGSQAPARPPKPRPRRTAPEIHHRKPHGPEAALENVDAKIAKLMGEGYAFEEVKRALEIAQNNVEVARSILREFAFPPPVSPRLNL
T1 sequence (P22314 2-1058 partner): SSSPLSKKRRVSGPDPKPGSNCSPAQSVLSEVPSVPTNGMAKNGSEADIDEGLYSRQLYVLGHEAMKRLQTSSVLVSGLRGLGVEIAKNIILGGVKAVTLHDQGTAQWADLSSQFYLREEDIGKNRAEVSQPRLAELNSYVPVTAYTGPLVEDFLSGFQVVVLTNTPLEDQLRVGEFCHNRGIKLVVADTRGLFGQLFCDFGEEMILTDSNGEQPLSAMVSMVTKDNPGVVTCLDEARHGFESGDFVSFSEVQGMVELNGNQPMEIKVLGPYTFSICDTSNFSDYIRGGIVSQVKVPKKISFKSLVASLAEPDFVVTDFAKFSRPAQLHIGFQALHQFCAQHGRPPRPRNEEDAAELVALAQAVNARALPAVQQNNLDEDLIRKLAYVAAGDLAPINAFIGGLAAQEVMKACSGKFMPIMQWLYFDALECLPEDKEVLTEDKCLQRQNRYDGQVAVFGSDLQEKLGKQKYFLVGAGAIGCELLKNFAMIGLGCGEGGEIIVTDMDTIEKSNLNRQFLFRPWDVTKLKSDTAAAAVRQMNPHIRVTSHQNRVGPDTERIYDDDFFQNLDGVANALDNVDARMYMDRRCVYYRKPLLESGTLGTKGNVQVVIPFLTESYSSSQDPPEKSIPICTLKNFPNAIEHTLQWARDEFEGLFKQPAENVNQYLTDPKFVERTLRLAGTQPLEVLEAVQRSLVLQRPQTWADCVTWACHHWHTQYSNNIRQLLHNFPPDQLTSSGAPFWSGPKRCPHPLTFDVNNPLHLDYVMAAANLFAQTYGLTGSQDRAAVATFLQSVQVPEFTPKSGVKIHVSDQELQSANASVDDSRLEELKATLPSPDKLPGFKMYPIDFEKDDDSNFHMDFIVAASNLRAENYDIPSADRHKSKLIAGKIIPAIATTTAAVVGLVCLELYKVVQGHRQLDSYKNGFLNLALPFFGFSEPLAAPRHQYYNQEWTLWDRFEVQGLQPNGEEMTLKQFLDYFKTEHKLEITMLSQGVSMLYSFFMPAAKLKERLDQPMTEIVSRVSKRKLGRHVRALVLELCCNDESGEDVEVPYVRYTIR

Regarding `O=C(N/C=C/c1ccc(O)cc1)c1c(-c2ccc(O)c(O)c2)c(-c2ccc(O)c(O)c2)c(C(=O)N/C=C/c2ccc(O)cc2)n1CCc1ccc(O)cc1` [compound 2, suberitamide B], the IC50 was around 11 µM.

In turn, `CO[C@@]1(C(=O)N/C=C/c2ccc(O)cc2)O[C@](O)(C(=O)N/C=C/c2ccc(O)cc2)[C@@H](c2ccc(O)c(O)c2)[C@@H]1c1ccc(O)c(O)c1` [compound 1, suberitamide A] showed an IC50 of around 11 µM.
